Test results: patent US8952024B2, “Herbicidal pyrimidone derivatives” (E I du Pont de Nemours and Company, priority 2009, dated 2015)

What was measured:
Type in all cases: in vivo
[1] = test system: ducksalad (Heteranthera limosa); test: Test B flooded paddy test; conditions: for Plant response rating, Flood, Ducksalad: 250 g ai/ha, flooded paddy test, visual rating on 0 to 100 scale (0 no effect, 100 complete control) after 13 to 15 days; for Plant response rating, Ducksalad: Flood (flooded paddy test), 13 to 15 days
In short: (§1)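 Plants were grown to the 2-leaf stage, then pots were flooded to 3 cm above the soil and compounds were applied directly into the paddy water. That depth was held throughout. After 13 to 15 days in a greenhouse, injury was visually rated against controls on a 0–100 scale.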

[2] = test system: rice (Oryza sativa); test: Test B flooded paddy test; conditions: for Plant response rating, Flood, Rice: 250 g ai/ha, flooded paddy test, visual rating on 0 to 100 scale (0 no effect, 100 complete control) after 13 to 15 days; for Plant response rating, Rice: Flood (flooded paddy test), 13 to 15 days
In short: as §1

[3] = test system: umbrella sedge (Cyperus difformis); test: Test B flooded paddy test; conditions: for Plant response rating, Flood, Sedge, Umbrella: 250 g ai/ha, flooded paddy test, visual rating on 0 to 100 scale (0 no effect, 100 complete control) after 13 to 15 days; for Plant response rating, Sedge, Umbrella: Flood (flooded paddy test), 13 to 15 days
In short: as §1

[4] = test system: barnyardgrass (Echinochloa crus-galli); test: Test B flooded paddy test; conditions: for Plant response rating, Flood, Barnyardgrass: 250 g ai/ha, flooded paddy test, visual rating on 0 to 100 scale (0 no effect, 100 complete control) after 13 to 15 days; for Plant response rating, Barnyardgrass: Flood (flooded paddy test), 13 to 15 days
In short: as §1

[5] = test system: giant foxtail (Setaria faberii); test: Test A pre-/postemergence plant response
In short: (§2)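 Seeds planted in loam soil/sand blend; test chemicals in non-phytotoxic solvent mixture with surfactant applied as directed soil spray preemergence and, concurrently, postemergence to plants 2–10 cm tall at one- to two-leaf stage. Greenhouse ~10 days; visual injury vs untreated controls, 0 (no effect) to 100 (complete control).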

[6] = test system: wheat (Triticum aestivum); test: Test A pre-/postemergence plant response
In short: as §2

[7] = test system: pigweed (Amaranthus retroflexus); test: Test A pre-/postemergence plant response
In short: as §2

[8] = test system: large crabgrass (Digitaria sanguinalis); test: Test A pre-/postemergence plant response
In short: as §2

[9] = test system: velvetleaf (Abutilon theophrasti); test: Test A pre-/postemergence plant response
In short: as §2

[10] = test system: corn (Zea mays); test: Test A pre-/postemergence plant response
In short: as §2

[11] = test system: barnyardgrass (Echinochloa crus-galli); test: Test A pre-/postemergence plant response
In short: as §2

[12] = test system: morningglory (Ipomoea spp.); test: Test A pre-/postemergence plant response
In short: as §2

[13] = test system: winter barley (Hordeum vulgare); test: Test B postemergence plant response; conditions: Postemergence; for Barley plant response rating: 250 g ai/ha, scale 0 to 100
In short: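 Plants grown in peat/vermiculite medium were sprayed postemergence at 2–18 cm height (1- to 4-leaf stage). After 13–15 days in the greenhouse, response was rated visually against untreated controls on a 0–100 scale (0 no effect, 100 complete control).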

[14] = 31 g ai/ha, scale of 0 to 100 where 0 is no effect and 100 is complete control
[15] = 62 g ai/ha, scale 0 to 100, 0 is no effect, 100 is complete control
[16] = 125 g ai/ha, scale 0 to 100, 0 is no effect, 100 is complete control
[17] = Postemergence, 125 g ai/ha, visual injury, 0 to 100 scale (0 no effect, 100 complete control), approx. ten days
[18] = Postemergence, 500 g ai/ha, 0 to 100 scale, 0 = no effect, 100 = complete control, approx. ten days
[19] = Preemergence, 125 g ai/ha, 0 to 100 scale, 0 = no effect, 100 = complete control
[20] = Preemergence, 500 g ai/ha, visual injury, 0 to 100 scale (0 no effect, 100 complete control), approx. ten days
[21] = 31 g ai/ha, scale 0 to 100 (0 no effect, 100 complete control)
[22] = 62 g ai/ha, scale 0 (no effect) to 100 (complete control), 13 to 15 days
[23] = 125 g ai/ha, scale 0 to 100 (0 no effect, 100 complete control), 13 to 15 days

Compound: Cc1ccc(-n2c(-c3ccccc3)ncc(C(=O)C3=C(O)CCCC3=O)c2=O)cc1 [Compound 8]
- Plant response rating, Flood, Ducksalad [1]: 90
- Plant response rating, Ducksalad [1, 14]: 30
- Plant response rating, Ducksalad [1, 15]: 85
- Plant response rating, Ducksalad [1, 16]: 85
- Plant response rating, Flood, Rice [2]: 50
- Plant response rating, Rice [2, 14]: 0
- Plant response rating, Rice [2, 15]: 0
- Plant response rating, Rice [2, 16]: 15
- Plant response rating, Flood, Sedge, Umbrella [3]: 95
- Plant response rating, Sedge, Umbrella [3, 14]: 30
- Plant response rating, Sedge, Umbrella [3, 15]: 65
- Plant response rating, Sedge, Umbrella [3, 16]: 85
- Plant response rating, Flood, Barnyardgrass [4]: 45
- Plant response rating, Barnyardgrass [4, 14]: 0
- Plant response rating, Barnyardgrass [4, 15]: 0
- Plant response rating, Barnyardgrass [4, 16]: 20
- Foxtail, Giant plant response rating [5, 17]: 90
- Plant response rating, Foxtail, Giant [5, 18]: 100
- Plant response rating, Foxtail, Giant [5, 19]: 40
- Plant response rating, Foxtail, Giant [5, 20]: 90
- Wheat plant response rating [6, 17]: 10
- Plant response rating, Wheat [6, 18]: 50
- Plant response rating, Wheat [6, 19]: 0
- Plant response rating, Wheat [6, 20]: 20
- Pigweed plant response rating [7, 17]: 100
- Plant response rating, Pigweed [7, 18]: 100
- Plant response rating, Pigweed [7, 19]: 90
- Plant response rating, Pigweed [7, 20]: 90
- Crabgrass, Large plant response rating [8, 17]: 80
- Plant response rating, Crabgrass, Large [8, 18]: 90
- Plant response rating, Crabgrass, Large [8, 19]: 40
- Plant response rating, Crabgrass, Large [8, 20]: 100
- Velvetleaf plant response rating [9, 17]: 100
- Plant response rating, Velvetleaf [9, 18]: 100
- Plant response rating, Velvetleaf [9, 19]: 50
- Plant response rating, Velvetleaf [9, 20]: 90
- Corn plant response rating [10, 17]: 10
- Plant response rating, Corn [10, 18]: 50
- Plant response rating, Corn [10, 19]: 0
- Plant response rating, Corn [10, 20]: 20
- Barnyardgrass plant response rating [11, 17]: 90
- Plant response rating, Barnyardgrass [11, 18]: 100
- Plant response rating, Barnyardgrass [11, 19]: 10
- Plant response rating, Barnyardgrass [11, 20]: 80
- Morningglory plant response rating [12, 17]: 90
- Plant response rating, Morningglory [12, 18]: 100
- Plant response rating, Morningglory [12, 19]: 0
- Plant response rating, Morningglory [12, 20]: 70
- Plant response rating, Barley [13, 21]: 0
- Plant response rating, Barley [13, 22]: 0
- Plant response rating, Barley [13, 23]: 5
- Barley plant response rating [13]: 20

Compound: Cc1ccccc1-n1c(-c2ccccc2)ncc(C(=O)C2=C(O)CCCC2=O)c1=O [Compound 12]
- Plant response rating, Flood, Ducksalad [1]: 55
- Plant response rating, Ducksalad [1, 14]: 0
- Plant response rating, Ducksalad [1, 15]: 25
- Plant response rating, Ducksalad [1, 16]: 35
- Plant response rating, Flood, Rice [2]: 0
- Plant response rating, Rice [2, 14]: 0
- Plant response rating, Rice [2, 15]: 0
- Plant response rating, Rice [2, 16]: 0
- Plant response rating, Flood, Sedge, Umbrella [3]: 65
- Plant response rating, Sedge, Umbrella [3, 14]: 20
- Plant response rating, Sedge, Umbrella [3, 15]: 40
- Plant response rating, Sedge, Umbrella [3, 16]: 50
- Plant response rating, Flood, Barnyardgrass [4]: 0
- Plant response rating, Barnyardgrass [4, 14]: 0
- Plant response rating, Barnyardgrass [4, 15]: 0
- Plant response rating, Barnyardgrass [4, 16]: 0
- Foxtail, Giant plant response rating [5, 17]: 90
- Plant response rating, Foxtail, Giant [5, 18]: 90
- Plant response rating, Foxtail, Giant [5, 19]: 20
- Plant response rating, Foxtail, Giant [5, 20]: 90
- Wheat plant response rating [6, 17]: 0
- Plant response rating, Wheat [6, 18]: 0
- Plant response rating, Wheat [6, 19]: 0
- Plant response rating, Wheat [6, 20]: 0
- Pigweed plant response rating [7, 17]: 100
- Plant response rating, Pigweed [7, 18]: 100
- Plant response rating, Pigweed [7, 19]: 80
- Plant response rating, Pigweed [7, 20]: 100
- Crabgrass, Large plant response rating [8, 17]: 90
- Plant response rating, Crabgrass, Large [8, 18]: 100
- Plant response rating, Crabgrass, Large [8, 19]: 50
- Plant response rating, Crabgrass, Large [8, 20]: 90
- Velvetleaf plant response rating [9, 17]: 100
- Plant response rating, Velvetleaf [9, 18]: 100
- Plant response rating, Velvetleaf [9, 19]: 70
- Plant response rating, Velvetleaf [9, 20]: 90
- Corn plant response rating [10, 17]: 40
- Plant response rating, Corn [10, 18]: 80
- Plant response rating, Corn [10, 19]: 0
- Plant response rating, Corn [10, 20]: 0
- Barnyardgrass plant response rating [11, 17]: 90
- Plant response rating, Barnyardgrass [11, 18]: 90
- Plant response rating, Barnyardgrass [11, 19]: 10
- Plant response rating, Barnyardgrass [11, 20]: 70
- Morningglory plant response rating [12, 17]: 100
- Plant response rating, Morningglory [12, 18]: 100
- Plant response rating, Morningglory [12, 19]: 30
- Plant response rating, Morningglory [12, 20]: 90
- Plant response rating, Barley [13, 21]: 0
- Plant response rating, Barley [13, 22]: 0
- Plant response rating, Barley [13, 23]: 0
- Barley plant response rating [13]: 0

Compound: O=C1CCCC(O)=C1C(=O)c1cnc(-c2ccccc2)n(-c2ccccc2F)c1=O [Compound 26]
- Plant response rating, Flood, Ducksalad [1]: 85
- Plant response rating, Ducksalad [1, 15]: 75
- Plant response rating, Flood, Rice [2]: 0
- Plant response rating, Rice [2, 15]: 0
- Plant response rating, Flood, Sedge, Umbrella [3]: 85
- Plant response rating, Sedge, Umbrella [3, 15]: 75
- Plant response rating, Flood, Barnyardgrass [4]: 0
- Plant response rating, Barnyardgrass [4, 15]: 0
- Foxtail, Giant plant response rating [5, 17]: 50
- Plant response rating, Foxtail, Giant [5, 18]: 90
- Plant response rating, Foxtail, Giant [5, 19]: 30
- Plant response rating, Foxtail, Giant [5, 20]: 70
- Wheat plant response rating [6, 17]: 0
- Plant response rating, Wheat [6, 18]: 0
- Plant response rating, Wheat [6, 19]: 0
- Plant response rating, Wheat [6, 20]: 0
- Pigweed plant response rating [7, 17]: 90
- Plant response rating, Pigweed [7, 18]: 100
- Plant response rating, Pigweed [7, 19]: 60
- Plant response rating, Pigweed [7, 20]: 100
- Crabgrass, Large plant response rating [8, 17]: 70
- Plant response rating, Crabgrass, Large [8, 18]: 90
- Plant response rating, Crabgrass, Large [8, 19]: 20
- Plant response rating, Crabgrass, Large [8, 20]: 90
- Velvetleaf plant response rating [9, 17]: 100
- Plant response rating, Velvetleaf [9, 18]: 100
- Plant response rating, Velvetleaf [9, 19]: 20
- Plant response rating, Velvetleaf [9, 20]: 100
- Corn plant response rating [10, 17]: 0
- Plant response rating, Corn [10, 18]: 20
- Plant response rating, Corn [10, 19]: 0
- Plant response rating, Corn [10, 20]: 0
- Barnyardgrass plant response rating [11, 17]: 30
- Plant response rating, Barnyardgrass [11, 18]: 80
- Plant response rating, Barnyardgrass [11, 19]: 0
- Plant response rating, Barnyardgrass [11, 20]: 60
- Morningglory plant response rating [12, 17]: 50
- Plant response rating, Morningglory [12, 18]: 80
- Plant response rating, Morningglory [12, 19]: 10
- Plant response rating, Morningglory [12, 20]: 70
- Plant response rating, Barley [13, 21]: 0
- Plant response rating, Barley [13, 22]: 0
- Plant response rating, Barley [13, 23]: 0
- Barley plant response rating [13]: 0
